Like-named read-outs stand apart in the source and are kept apart here.
Tests used:
[1] = tested on: J7-T3-1.6; experiment: cells; assay type: cell-based, mouse; settings: for IC50: J7-T3-1.6, 72 h, mean ± SE, read-out: IC50 (drug concentration that inhibits cell division by 50%); for Fold resistance (ratio of IC50 J7-T3-1.6 to J774.2): after 72 h
Procedure: (§1) The drug-sensitive mouse macrophage-like cell line, J774.2, and its Taxol-resistant cell line, J7-T3-1.6, were maintained as previously described. […] Drug-sensitive and vinblastine-resistant human ovarian carcinoma cell lines, SKOV3 and SKVLB, were obtained from Dr. V. Ling, and were maintained as previously described. Both J7-T3-1.6 and SKVLB cells overexpress P-glycoprotein. SKVLB cells were grown in the presence of 1 μM vinblastine. The Taxol-resistant human non-small-cell lung carcinoma cell line, A549-T12, was derived from the drug-sensitive A549 cell line; both cell lines were maintained as previously described.
(§2) For the A549 cell lines, cells were seeded at a density of 1×10^4 cells/mL (A549) or 3×10^4 cells/mL (A549-T12), in triplicate, 6-well plates, and allowed to attach for 24 h. […] The SKOV3 and SKVLB cell lines were assayed in a similar manner. Cells were seeded in triplicate, at a density of 6×10^3 cells/mL (SKOV3) or 12×10^3 cells/mL (SKVLB), in 6-well plates, and incubated with a drug for 6 days. […] J774.2 and J7-T3-1.6 cells were plated at a density of 2×10^4 cells/well, in 96-well plates, and allowed to attach overnight. Serial dilutions of each drug were performed, and the cells were incubated for 72 h. The IC50 was determined using the CellTiter 96™ AQueous nonradioactive cell proliferation assay (Promega, Madison, Wis.), which correlates with the number of live cells. Different methods for determining IC50 values were used, depending on the most accurate method for each particular set of cell lines.

[2] = tested on: J774.2; experiment: cells; assay type: cell-based, mouse; settings: J774.2, 72 h, mean ± SE; for IC50: read-out: IC50 (drug concentration that inhibits cell division by 50%)
Procedure: as §1, §2

[3] = tested on: A549-T12; experiment: cells; assay type: cell-based, human; settings: for IC50: read-out: IC50 (drug concentration that inhibits cell division by 50%)
Procedure: as §1, §2

[4] = tested on: A549; experiment: cells; assay type: cell-based, human; settings: for IC50: read-out: IC50 (drug concentration that inhibits cell division by 50%)
Procedure: as §1, §2

[5] = tested on: SKOV3; experiment: cells; assay type: cell-based, human; settings: SKOV3, 6 days, mean ± SE; for IC50: read-out: IC50 (drug concentration that inhibits cell division by 50%)
Procedure: as §1, §2

[6] = tested on: SKVLB; experiment: cells; assay type: cell-based, human; settings: for IC50: SKVLB, 6 days, mean ± SE, read-out: IC50 (drug concentration that inhibits cell division by 50%); for Fold resistance (ratio of IC50, SKVLB and SKOV3): after 6 days
Procedure: as §1, §2

[7] = tested on: A549-T12 cells; assay type: cell-based, human; settings: 48 h; concentrations as in FIG. 4
Procedure: A549-T12 cells were grown on cover slips and treated with the different compounds for 48 h. Cells were then permeabilized, fixed, and incubated with an α-tubulin antibody, as described below.
A549-T12 cells, which were grown to subconfluency on glass cover slips in the absence of drug or in the presence of different drugs at varying concentrations (FIG. 4), were prepared for immunofluorescence microscopy as previously described, with the following modifications: (a) nonspecific binding was blocked using 10% normal goat serum in PBS for 30 min at 37° C.; (b) cells were incubated with a monoclonal antibody to α-tubulin (Sigma; 1:100 dilution; 5% normal goat serum in PBS), followed by a Cy3-conjugated anti-mouse IgG secondary antibody (Amersham, Arlington Heights, Ill.; 1:1000 dilution); and (c) slides were analyzed using the Zeiss Axioskop microscope (rhodamine filter) at 63× magnification.

[8] = tested on: A549-T12 cells; assay type: cell-based, human; settings: for Cell-cycle profile: 48 h, 2 nM Taxol, discodermolide 2 or 6 nM, other drugs as in FIG. 5; for Reversal of the G2-M-phase block induced by Taxol removal: 48 h without Taxol, then 48 h with drug, discodermolide 0.001-24.0 nM, data not shown
Procedure: Cells were incubated with the different agents for 48 h, fixed, stained with propidium iodide, and analyzed by flow cytometry, as described below.
For the drug substitution experiments, A549-T12 cells were seeded at a density of 3×10^4 cells/mL in 75-cm^2 flasks, and treated with various drugs at the indicated concentrations (FIG. 5). After 48 h, both adherent and nonadherent cells were harvested, fixed in 70% ethanol for at least 20 min, permeabilized with 0.1% Triton X-100 in PBS for 3 min, and stained for 30 min at 37° C. with 10 μg/mL of propidium iodide (Sigma) in a PBS solution containing 1 μg/mL of RNase A (Boehringer Mannheim, Indianapolis, Ind.). Cell-cycle analysis was performed using the Becton Dickinson FACScan and the CellQuest program. […] The cells then were prepared as described above.

[9] = tested on: microtubules; experiment: In vitro microtubule polymerization assay; assay type: biochemical; settings: in the absence of GTP
[10] = tested on: A549 cells; experiment: Methylene blue growth assay; assay type: cell-based, human; settings: 8 to 11 days
Procedure: (§3) FIG. 2 illustrates that A549-T12 cells require Taxol for normal growth. A549 and A549-T12 cells were grown in the absence or presence of various concentrations of Taxol for 8 to 11 days. The cells were then stained with methylene blue, as described below.
(§4) Cells were seeded in 24-well plates at a density of 400 cells/well (A549) or 500 cells/well (A549-T12), and treated with different concentrations of Taxol. Following 8 to 11 days of growth, the medium was removed, and cells were stained with 0.5% methylene blue (Sigma) in 50% ethanol for 20 min, then rinsed with distilled water (FIG. 2).

[11] = tested on: A549-T12 cells; experiment: Methylene blue growth assay; assay type: cell-based, human; settings: 8 to 11 days
Procedure: as §3, §4

[12] = Homo sapiens, Ovarian carcinoma cell, 144 h
[13] = A549-T12, 72 h, cells maintained in 2 nM Taxol, mean ± SE
[14] = Homo sapiens, A549-T12, 72 h, cells maintained in 2 nM Taxol, mean ± SE
[15] = Homo sapiens, A549, 72 h, mean ± SE

IC50 ([1]; Mus musculus) [nM] | IC50 ([2]; Mus musculus) [nM] | IC50 ([5]; Homo sapiens, SK-OV-3, 144 h) [nM] | IC50 [6, 12] [nM] | SMILES | Fold resistance (ratio of IC50 J7-T3-1.6 to J774.2) [1] [fold] | IC50 (drug concentration that inhibits cell division by 50%) [2] | IC50 (drug concentration that inhibits cell division by 50%) [5] | Fold resistance (ratio of IC50, SKVLB and SKOV3) [6] | Microtubule cytoskeleton / ability to substitute for Taxol [7] | Cell-cycle profile [8] | Reversal of the G2-M-phase block induced by Taxol removal [8] | Assembly of microtubules [9] | IC50 [1] [nM] | IC50 [2] [nM] | Fold resistance (ratio of IC50 A549-T12 to A549) ([3]; 72 h) [fold] | IC50 [3, 13] [nM] | IC50 (drug concentration that inhibits cell division by 50%) ([4]; A549, 72 h, mean ± SE) | IC50 ([4]; A549, 72 h, mean ± SE) [nM] | IC50 [5] [nM] | IC50 [6] [nM] | also measured
– | – | – | – | C/C(=C\c1csc(C)n1)[C@@H]1C[C@@H]2O[C@@H]2CCC[C@H](C)[C@H](O)[C@@H](C)C(=O)C(C)(C)[C@@H](O)CC(=O)O1 [EpoA, epothilone A] | 16 | – | decreased but similar responses | 18.5 fold | normal microtubule cytoskeleton | normal cell-cycle profile | return of a normal cell-cycle profile | – | 170 ± 14 | 10.6 ± 2 | 5.3 | 34 ± 3.1 | comparable activities | 6.4 ± 2 | 10.3 ± 4.5 | 190 ± 14 | Fold resistance (ratio of IC50 J7-T3-1.6 to J774.2) ([1]; listed as epothilone A): low resistance; Fold resistance (ratio of IC50 A549-T12 to A549) ([3]; 72 h, listed as epothilone A): cross-resistance; Fold resistance (ratio of IC50, SKVLB and SKOV3) ([6]; listed as epothilone A): low-level cross-resistance
– | – | – | – | C/C(=C\c1csc(C)n1)[C@@H]1C[C@@H]2O[C@]2(C)CCC[C@H](C)[C@H](O)[C@@H](C)C(=O)C(C)(C)[C@@H](O)CC(=O)O1 [EpoB, epothilone B] | 30 | most sensitive | highest sensitivity | 19.0 fold | normal microtubule cytoskeleton | normal cell-cycle profile | return of a normal cell-cycle profile | – | 12 ± 4 | 0.4 ± 0.1 | 4.7 | 3.3 ± 0.72 | more potent | 0.7 ± 0.1 | 0.5 ± 0.09 | 9.5 ± 2.1 | Fold resistance (ratio of IC50 J7-T3-1.6 to J774.2) ([1]; listed as epothilone B): low resistance; Fold resistance (ratio of IC50 A549-T12 to A549) ([3]; 72 h, listed as epothilone B): cross-resistance; Fold resistance (ratio of IC50, SKVLB and SKOV3) ([6]; listed as epothilone B): low-level cross-resistance
18000 | 67 ± 7 | 2 ± 0.1 | 13300 | CC(=O)O[C@H]1C(=O)[C@@]2(C)[C@H]([C@H](OC(=O)c3ccccc3)[C@]3(O)C[C@H](OC(=O)[C@H](O)[C@@H](NC(=O)c4ccccc4)c4ccccc4)C(C)=C1C3(C)C)[C@]1(OC(C)=O)CO[C@@H]1C[C@@H]2O [Taxol, paclitaxel] | 268.7 | – | decreased but similar responses | 6,666.5 fold | normal microtubule cytoskeleton | normal cell-cycle profile | return of a normal cell-cycle profile | enhanced the assembly of stable microtubules | – | – | – | – | – | – | – | – | IC50 [3, 14]: 18.7 ± 0.9 nM; IC50 [4, 15]: 2 ± 0.14 nM; Cell growth ([10]; 6 nM Taxol): cytotoxic; Cell growth ([10]; subnanomolar concentrations of Taxol): unaffected; Cell growth ([11]; 6 nM Taxol): grew normally; Taxol level required by the cell line for normal growth [11]: 2 to 6 nM
767 ± 351 | 6 ± 2.7 | 1.1 ± 0.1 | 1880 | CC[C@]1(O)C[C@@H]2CN(CCc3c([nH]c4ccccc34)[C@@](C(=O)OC)(c3cc4c(cc3OC)N(C)[C@H]3[C@@](O)(C(=O)OC)[C@H](OC(C)=O)[C@]5(CC)C=CCN6CC[C@]43[C@@H]65)C2)C1 [VBL, vinblastine] | 127.8 | – | highest sensitivity | 1,709.4 fold | Neither discodermolide nor vinblastine was able to substitute for Taxol | mitotic block | irreversible | – | – | – | 1.0 | – | – | – | – | – | Fold resistance (ratio of IC50 J7-T3-1.6 to J774.2) ([1]; listed as vinblastine): significant cross-resistance; Fold resistance (ratio of IC50 A549-T12 to A549) ([3]; 72 h, listed as vinblastine): no cross-resistance; IC50 [3, 14]: 1.8 ± 0.18 nM; IC50 [4, 15]: 1.8 nM

SMILES | IC50 ([1]; Mus musculus) [nM] | IC50 ([2]; Mus musculus) [nM] | IC50 ([5]; Homo sapiens, SK-OV-3, 144 h) [nM] | IC50 [6, 12] [nM] | Fold resistance (ratio of IC50 J7-T3-1.6 to J774.2) [1] [fold] | IC50 (drug concentration that inhibits cell division by 50%) [2] | IC50 (drug concentration that inhibits cell division by 50%) [5] | Fold resistance (ratio of IC50, SKVLB and SKOV3) [6] | Microtubule cytoskeleton / ability to substitute for Taxol [7] | Cell-cycle profile [8] | Reversal of the G2-M-phase block induced by Taxol removal [8] | Assembly of microtubules [9] | IC50 [1] [nM] | IC50 [2] [nM] | Fold resistance (ratio of IC50 A549-T12 to A549) ([3]; 72 h) [fold] | IC50 [3, 13] [nM] | IC50 (drug concentration that inhibits cell division by 50%) ([4]; A549, 72 h, mean ± SE) | IC50 ([4]; A549, 72 h, mean ± SE) [nM] | IC50 [5] [nM] | IC50 [6] [nM] | also measured
CO[C@]12C=C[C@](C)(O1)[C@@H](OC(=O)/C=C/c1cn(C)cn1)C[C@H]1C(C)=CC[C@H](C(C)C)[C@H]1/C=C\2CO[C@@H]1OC[C@@H](O)[C@@H](O)[C@@H]1OC(C)=O [Eleu, eleutherobin] | > 5000 | 394 ± 5.8 | 8.2 ± 3.8 | > 5000 | >12.7 | quite insensitive | decreased but similar responses | >609.8 fold | normal microtubule cytoskeleton | normal cell-cycle profile | return of a normal cell-cycle profile | enhanced the assembly of stable microtubules | – | – | – | – | – | – | – | – | IC50 ([3]; Homo sapiens, 72 h): 69 ± 11.3 nM; IC50 (drug concentration that inhibits cell division by 50%) [4]: comparable activities; IC50 ([4]; Homo sapiens, A549, 72 h): 14 ± 2.8 nM; Fold resistance (ratio of IC50, SKVLB and SKOV3) ([6]; listed as eleutherobin): definite cross-resistance
